{
  "source": "patent US20150202157A1",
  "about": "“COMPOSITIONS AND METHODS FOR ENHANCING NEURONAL PHOSPHORYLATION HOMEOSTASIS, AND MODULATING DYSFUNCTIONAL EXOCYTOSIS AND NEUROTRANSMITTER RELEASE” (Revalesio Corporation, priority 2014, published 2015)",
  "system": "squid giant synapse",
  "experiment": "Electron microscopy of presynaptic terminal (synaptic vesicles at active zones)",
  "assay_type": "cell-based, squid (Loligo paelli)",
  "settings": "treated squid following h-tau42 injection",
  "source_text": "Immediately following the electrophysiological study the ganglia were removed from the recording chamber, fixed by immersion in glutaraldehyde, postfixed in osmium tetroxide, stained in block with uranium acetate, dehydrated and embedded in resin (Embed 812, EM Sciences). Ultrathin sections were collected on Pioloform (Ted Pella, Redding, Calif.) and carbon-coated single sloth grids, and contrasted with uranyl acetate and lead citrate. Morphometry and quantitative analysis of the synaptic vesicles were performed with the in house program developed with LabVIEW (National Instruments, Ostin Tex.). […] Vesicle density at the synaptic active zones was determined as the number of vesicles per μm^2, on an average area of 0.8 μm^2 per active zone. CCV density was determined within the limits of the presynaptic terminal on an average terminal area of 3.3 μm^2.\nAt the end of the electrophysiological recordings the stellate ganglion was immediately removed from the recording chamber and fixed by immersion in glutaraldehyde. […] Morphometry and quantitative analysis of the synaptic vesicles were performed with the image J software (NIH, EUA). […] Synaptic vesicle density and the number of CCV at the synaptic active zones were determined as the number of vesicles per μm2. […]",
  "data": [
    {"smiles": "O=C(O)/C=C\\C(=O)O.OC1CN(CCCOCCc2ccc3sccc3c2)C1", "note": "[T817MA]", "values": [
      {"measurement": "reduction in number of docked vesicles following h-tau42 injection", "result": "not seen"}
    ]}
  ]
}
